Laboratory results as given in patent US10406158B2, “Methods and compositions for treating abnormal cell growth” (Verastem, Inc., priority 2014, dated 2019).

Tests used:
[1] = tested on: mesothelioma cells (Mero-41); assay: Matrigel on-top (MoT) 3D culture, CellTiter-Glo cell viability, 9x9 combination matrix; format: cell-based; conditions: MEK inhibitor in combination with FAK inhibitor VS-6063, 96 hours incubation, compared with Bliss, HSA and Loewe models
Description: (§1) Cell Lines: Cancer cell lines were purchased from American Type Culture Collection (Manassas, VA) and cultured under ATCC recommended standard culture conditions. Mero-41 (mesothelioma cell line) were purchased from Sigma-Aldrich (St. Louis, MO) and cultured under ECACC recommended standard culture conditions. […] TOV-21G (ovarian clear cell carcinoma cell line) were cultured under ECACC recommended standard culture conditions. Growth media for all cell lines were supplemented with penicillin (100 units/ml)/streptomycin (100 μg/ml).
(§2) Compound were used at the top concentration 10 uM in a 2-fold dilution. Paclitaxel was dosed at the top concentration 1 uM in a 3-fold dilution.
(§3) A ‘Matrigel on-top’ (MoT) assay where cells were propagated in a 3-dimentional culture was used. Cells were plated above a dense base layer of Matrigel (BD Biosciences, Franklin Lakes, N.J.), diluted 1:1 with culture medium. Single cell preparations were resuspended in dilute Matrigel (1:50 in culture medium) and seeded to cover the Matrigel base layer. This ensured that ovarian cancer cells were surrounded with extracellular matrix (ECM) components, of which collagen and laminin are the major Matrigel constituents. Cells were seeded in a density of 500 cells per well in 384-well black Ultra-low attachment plates with clear bottom (Corning, Tewksbury MA). […] Cell survival/proliferation was assessed by CellTiter-Glo® Luminescent Cell Viability Assay (Promega, Madison, Wis.).
(§4) Combination effects were evaluated by comparing the averaged viability/inhibition to three different null reference models derived from the single agent activities.
(§5) The expected additivity effect is the statistical expectation for the combined effect from independent inhibitors: Mathematically, Bliss (FU)=FUA1 X FUA2, where FUA1 and FUA2 are the unaffected fraction when treated with compounds Al and A2, respectively.

[2] = tested on: breast cancer cells (MDA-MB-231); assay: as above; format: cell-based; conditions: MEK inhibitor in combination with FAK inhibitor VS-6063, 96 hours incubation, compared with Bliss, HSA and Loewe models
Description: as §1, §2, §3, §4, §5

Compound | combination effect on cell viability [1] | combination effect on cell viability [2]
Cn1cnc2c(F)c(Nc3ccc(Br)cc3Cl)c(C(=O)NOCCO)cc21 [AZD-6244] | more than additive effect | 
O=C(NOCCO)c1ccc2cncn2c1Nc1ccc(I)cc1F [GDC-0623] | more than additive effect | more than additive effect
O=C(NC[C@H](O)CO)c1ccncc1Nc1ccc(I)cc1F [pimasertib] | more than additive effect | more than additive effect
cobimetinib | more than additive effect | more than additive effect
trametinib | more than additive effect | more than additive effect
